Where a name gives a salt, the structure may show the parent alone. Read-outs that look alike come from different tables or passages of the source.
Legend:
[1] = system: receptor tyrosine kinase (RTK); assay: Receptor tyrosine kinase (RTK) signaling; type: cell-based
[2] = system: TNFα; assay: Other cytokine signaling (TNFα); type: cell-based
[3] = system: cell proliferation; assay: Cell proliferation (broad inhibition); type: cell-based
[4] = molecular target: T1, Syk (Homo sapiens, UniProt P43405); assay: Human cell based assay against Syk; settings: human cell based assays; read-out: half maximal effective concentration (EC50) against Syk
T1 construct: endogenous in cells

[5] = molecular target: T2, JAK3 (Homo sapiens, UniProt P52333); assay: Human cell based assay against JAK3; settings: human cell based assays; read-out: half maximal effective concentration (EC50) against JAK3
T2 construct: endogenous in cells
T2 sequence (P52333 1-1124): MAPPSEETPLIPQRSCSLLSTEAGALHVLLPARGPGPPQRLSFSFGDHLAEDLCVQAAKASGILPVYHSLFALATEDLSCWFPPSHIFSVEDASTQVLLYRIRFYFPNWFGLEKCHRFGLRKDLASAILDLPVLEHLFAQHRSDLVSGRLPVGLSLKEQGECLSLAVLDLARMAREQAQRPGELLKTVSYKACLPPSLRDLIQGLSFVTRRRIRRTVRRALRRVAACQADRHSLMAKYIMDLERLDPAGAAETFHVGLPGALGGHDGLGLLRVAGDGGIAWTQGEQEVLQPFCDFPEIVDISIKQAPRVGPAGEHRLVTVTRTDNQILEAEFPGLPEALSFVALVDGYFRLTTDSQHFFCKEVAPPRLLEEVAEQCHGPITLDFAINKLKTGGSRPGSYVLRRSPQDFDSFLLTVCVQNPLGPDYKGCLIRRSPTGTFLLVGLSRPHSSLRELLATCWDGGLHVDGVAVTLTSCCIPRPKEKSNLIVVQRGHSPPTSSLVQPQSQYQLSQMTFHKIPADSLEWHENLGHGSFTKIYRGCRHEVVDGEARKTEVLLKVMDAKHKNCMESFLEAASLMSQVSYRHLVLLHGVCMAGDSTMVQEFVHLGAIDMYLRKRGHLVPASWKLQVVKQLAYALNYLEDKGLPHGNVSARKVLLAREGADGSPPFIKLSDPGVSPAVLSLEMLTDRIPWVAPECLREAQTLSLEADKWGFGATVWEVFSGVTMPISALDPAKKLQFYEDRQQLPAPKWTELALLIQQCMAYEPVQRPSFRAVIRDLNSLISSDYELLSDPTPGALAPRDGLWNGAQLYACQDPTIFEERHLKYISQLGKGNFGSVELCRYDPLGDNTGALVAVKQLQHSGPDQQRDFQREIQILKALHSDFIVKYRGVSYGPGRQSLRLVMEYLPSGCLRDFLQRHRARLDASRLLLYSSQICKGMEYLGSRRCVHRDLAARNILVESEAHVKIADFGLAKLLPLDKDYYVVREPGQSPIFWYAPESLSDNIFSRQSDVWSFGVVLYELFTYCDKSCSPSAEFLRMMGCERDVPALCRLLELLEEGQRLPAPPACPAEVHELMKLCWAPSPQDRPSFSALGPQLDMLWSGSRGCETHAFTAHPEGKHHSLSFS

[6] = system: IL-1β; assay: Other cytokine signaling (IL-1β); type: cell-based
[7] = system: JAK1 and JAK3 kinases; assay: Ramos B-cell line stimulated with IL-4, CD23 upregulation (FACS); type: cell-based, human
Procedure: One means of assaying for JAK inhibition is detection of the effect of compounds I and II on the upregulation of downstream gene products. In the Ramos/IL4 assay, B-cells are stimulated with the cytokine Interleukin-4 (IL-4) leading to the activation of the JAK/Stat pathway through phosphorylation of the JAK family kinases, JAK1 and JAK3, which in turn phosphorylate and activate the transcription factor Stat-6. […] Twenty to 24 hours post stimulation, cells are stained for upregulation of CD23 and analyzed using flow cytometry (FACS). […] An exemplary assay of this type is described in greater detail below. B-cells stimulated with cytokine Interleukin-4 (IL-4) activate the JAK/Stat pathway through phosphorylation of the JAK family kinases, JAK-1 and JAK-3, which in turn phosphorylate and activate the transcription factor Stat-6. […] To study the effect of inhibitors on the JAK family kinases, human Ramos B cells are stimulated with human IL-4. The Ramos B-cell line was acquired from [NT] No. CRL-1596). The cells were cultured in RPMI 1640 (Cellgro, MediaTech, Inc., Herndon, Va., Cat No. 10-040-CM) with 10% fetal bovine serum (FBS), heat inactivated (JRH Biosciences, Inc, Lenexa, Kans., Cat No. 12106-500M) according to ATCC propagation protocol. Cells were maintained at a density of 3.5×10^5. The day before the experiment, Ramos B-cells were diluted to 3.5×10^5 cells/mL to ensure that they were in a logarithmic growth phase. Cells were spun down and suspended in RPMI with 5% serum. 5×10^4 cells were used per point in a 96-well tissue culture plate. Cells were pre-incubated with compound or DMSO (Sigma-Aldrich, St. Louis, Mo., Cat No. D2650) vehicle control for 1 hour in a 37° C. incubator. Cells were then stimulated with IL-4 (Peprotech Inc., Rocky Hill, N.J., Cat No. 200-04) for a final concentration of 50 units/mL for 20-24 hours. Cells were then spun down and stained with anti-CD23-PE(BD Pharmingen, San Diego, Calif., Cat No. 555711) and analyzed by FACS. Detection was performed using a BD LSR I System Flow Cytometer, purchased from Becton Dickinson Biosciences of San Jose, Calif.

[8] = system: primary human T-cells; assay: Primary human T-cell proliferation assay stimulated with IL-2 (CellTiter-Glo); type: cell-based; settings: read-out: Example 4 IC50
From the text: In this assay, primary human T-cells derived from peripheral blood and pre-activated through stimulation of the T-cell receptor and CD28, proliferate in culture in response to the cytokine Interleukin-2 (IL-2). This proliferative response is dependent on the activation of JAK1 and JAK3 tyrosine kinases, which phosphorylate and activate the transcription factor Stat-5. […] A reduction in cell proliferation compared to control conditions is indicative of inhibition of the JAK kinase pathway. An exemplary assay of this type is described in greater detail below.
Primary human T-cells derived from peripheral blood and pre-activated through stimulation of the T-cell receptor and CD28, proliferate in vitro in response to the cytokine Interleukin-2 (IL-2). This proliferative response is dependent on the activation of JAK-1 and JAK-3 tyrosine kinases, which phosphorylate and activate the transcription factor Stat-5.
Human primary T cells were prepared as follows. […] The lymphocytes at the serum: ficoll interface were recovered and washed twice with 5 volumes of PBS. […] The primary T-cells were stimulated for 3-4 days, then transferred to a fresh flask and maintained in RPMI with 10% FBS and 40 U/mL IL-2.
Primary T-cells were washed twice with PBS to remove the IL-2 and resuspended in Yssel's medium at 2×10^6 cells/mL. 50 μL of cell suspension containing 80 U/mL IL-2 was added to each well of a flat bottom 96 well black plate. For the unstimulated control, IL-2 was omitted from the last column on the plate. […] 50 μL of 2× compound was added per well in duplicate and the cells were allowed to proliferate for 72 hours at 37° C.
Proliferation was measured using CellTiter-Glo® Luminescent Cell Viability Assay (Promega), which determines the number of viable cells in culture based on quantitation of the ATP present, as an indicator of metabolically active cells. The substrate was thawed and allowed to come to room temperature. After mixing the Cell Titer-Glo reagent and diluent together, 100 μL was added to each well. […]

[9] = system: JAK/Stat pathway; assay: U937 IFNγ ICAM1 FACS assay; type: cell-based, human; settings: U937 cells, IFNγ 10 ng/mL, 18-24 hours, ICAM-1 expression; read-out: Example 6 IC50
Procedure: U937 human monocytic cells up-regulate ICAM-1 (CD54) surface expression in response to a variety of different stimuli. Therefore, using ICAM-1 expression as readout, compound effects on different signaling pathways can be assessed in the same cell type. IFNγ up-regulates ICAM-1 through activation of the JAK/Stat pathway. In this example, the up-regulation of ICAM-1 by IFNγ was assessed.
U937 cells were grown in 10% RPMI. The cells were then plated at a concentration of 100,000 cells per 160 μL in 96 well flat bottom plates. […] Then 4 μL of test compound was transferred to 76 μL of 10% RPMI resulting in a 10× solution (100 μM test compound, 5% DMSO). For control wells, 4 μL of DMSO was diluted into 76 μL 10% RPMI.
The assay was performed in duplicate with 8 points (8 3-fold dilution concentrations from […]) and with 4 wells of DMSO only (control wells) under stimulated conditions and 4 wells of DMSO only under unstimulated conditions.
The diluted compound plate was mixed 2× using a multimek (Beckman Coulter of Brea, Calif.) and then 20 μL of the diluted compounds was transferred to the 96 well plate containing 160 μL of cells, which were then mixed again twice at low speeds. The cells and compounds were then pre-incubated for 30 minutes at 37° C. with 5% CO2.
The 10× stimulation mix was made by preparing a 100 ng/mL solution of human IFNγ in 10% RPMI. […] The cells were kept under conditions for stimulation for 18-24 hours at 37° C. with 5% CO2.
The cells were transferred to a 96 well round bottom plate for staining and then kept on ice for the duration of the staining procedure. Cells were spun down at 1000 rpm for 5 minutes at 4° C., following which the supernatant was removed. Following removal of the supernatant, 1 μL APC conjugated mouse anti-human ICAM-1 antibody was added per 100 μL FACS buffer. The cells were then incubated on ice in the dark for 30 minutes. Following incubation, 150 μL of FACS buffer was added and the cells were centrifuged at 1000 rpm for 5 minutes at 4° C., following which the supernatant was removed. […]
Both % live cells and ICAM-1 expression was analyzed. […]

With `C#CCOc1ccc(Nc2nc(Nc3ccc(C)c(S(N)(=O)=O)c3)ncc2F)cc1` [Compound I, N2-(3-Aminosulfonyl-4-methylphenyl)-5-fluoro-N-4-[4-(prop-2-ynyloxy)phenyl]-2,4-pyrimidinediamine] the “activity on receptor tyrosine kinase (RTK) signaling” value [1] was “little or no activity”, the “activity on other cytokine signaling (TNFα)” value [2] was “little or no activity” and the “inhibition of cell proliferation” value [3] was “not a broad inhibitor of cell proliferation”. The EC50 [4] was ~140 nM, the EC50 [5] was ~180 nM and the “activity on other cytokine signaling (IL-1β)” value [6] was “little or no activity”.
With `C#CCOc1ccc(Nc2nc(Nc3ccc(C)c(S(=O)(=O)NC(=O)CC)c3)ncc2F)cc1` [II, 5-fluoro-N2-(4-methyl-3-propionylaminosulfonylphenyl)-N-4-[4-(prop-2-ynyloxy)phenyl]-2,4-pyrimidinediamine] the IC50 ([7]; Homo sapiens, Ramos B cells, IL-4 50 units/mL, 20-24 hours, CD23 staining, read-out: Example 3 IC50) was 9660 nM.
With `C#CCOc1ccc(Nc2nc(Nc3ccc(C)c(S(=O)(=O)NC(=O)CC)c3)ncc2F)cc1` [III, 5-fluoro-N2-(4-methyl-3-propionylaminosulfonylphenyl)-N-4-[4-(prop-2-ynyloxy)phenyl]-2,4-pyrimidinediamine mono-sodium salt] the IC50 ([7]; Ramos B cells, IL-4 50 units/mL, 20-24 hours, CD23 staining, mono-sodium salt, read-out: Example 3 IC50) was 3970 nM.
`C#CCOc1ccc(Nc2nc(Nc3ccc(C)c(S(=O)(=O)NC(=O)CC)c3)ncc2F)cc1` [IV, 5-Fluoro-N2-[4-methyl-3-(N-propionylaminosulfonyl)phenyl]-N4-[4-(2-propynyloxy)phenyl]-2,4-pyrimidinediamine Potassium Salt] gave an IC50 ([8]; Homo sapiens, T-cell, 72 h) of 5560 nM and an IC50 ([7]; Homo sapiens, Ramos, read-out: Example 3 IC50, Ramos B cells, IL-4 50 units/mL, 20-24 hours, CD23 staining) of 2320 nM.
For `C#CCOc1ccc(Nc2nc(Nc3ccc(C)c(S(=O)(=O)NC(=O)CC)c3)ncc2F)cc1` [V, 5-Fluoro-N2-[4-methyl-3-(N-propionylaminosulfonyl)phenyl]-N-4-[4-(2-propynyloxy)phenyl]-2,4-pyrimidinediamine Calcium Salt], the IC50 ([7]; Ramos B cells, IL-4 50 units/mL, 20-24 hours, CD23 staining, Calcium Salt, read-out: Example 3 IC50) was 373 nM and the IC50 [9] was 25100 nM.
Molecule `C#CCOc1ccc(Nc2nc(Nc3ccc(C)c(S(=O)(=O)NC(=O)CC)c3)ncc2F)cc1` [VII, 5-Fluoro-N2-[4-methyl-3-(N-propionylaminosulfonyl)phenyl]-N4-[4-(2-propynyloxy)phenyl]-2,4-pyrimidinediamine Choline Salt] has an IC50 ([8]; primary human T-cells, IL-2, 72 hours, ATP readout) of 53 nM, an IC50 ([7]; Ramos B cells, IL-4 50 units/mL, 20-24 hours, CD23 staining, read-out: Example 3 IC50) of 22 nM and an IC50 [9] of 140 nM.

Source: patent publication US8497279B2, “Treatment for discoid lupus” (Rigel Pharmaceuticals, Inc., priority 2011, dated 2013)
